This note sets out measurements from patent US10611760B2, “Therapeutic compounds as inhibitors of the orexin-1 receptor” (C4X Discovery Limited, priority 2014, dated 2020).

Holding throughout (type): cell-based
One assay addresses T1, orexin-1 (Homo sapiens, UniProt O43613).
T1 construct: expressed in transfected cells
T1 sequence (O43613 1-425): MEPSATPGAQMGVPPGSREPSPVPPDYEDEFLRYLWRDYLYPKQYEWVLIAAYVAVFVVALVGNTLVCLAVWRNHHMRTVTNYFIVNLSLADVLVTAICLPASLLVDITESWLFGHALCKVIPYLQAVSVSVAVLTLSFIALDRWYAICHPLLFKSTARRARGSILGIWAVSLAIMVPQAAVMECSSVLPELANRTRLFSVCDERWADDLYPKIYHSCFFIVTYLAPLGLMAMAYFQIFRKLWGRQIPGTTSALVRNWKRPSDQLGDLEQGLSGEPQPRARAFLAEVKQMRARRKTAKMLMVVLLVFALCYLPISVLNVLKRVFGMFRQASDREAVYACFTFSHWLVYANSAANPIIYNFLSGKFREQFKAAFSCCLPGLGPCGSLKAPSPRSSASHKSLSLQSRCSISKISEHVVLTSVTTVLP
The experiment in a line: Antagonism against orexin-1 in the aforementioned (above identified) intracellular calcium assays. An excerpt: Antagonism against orexin receptors has been measured for each example compound using at least one of the following procedures. […] These values may fluctuate depending on the daily cellular assay performance. Fluctuations of this kind are known to those skilled in the art. […] Data highlighted with an asterix (*) is derived from a single experiment, otherwise all data reported is an average of at least two independant replicate experiments. […]

In assay [1] the target is T2, hOX1R (Homo sapiens, UniProt O43613).
T2 sequence (O43613 1-425): T1 sequence (O43613 1-425)
The experiment in a line: Intracellular calcium measurements using stable-replicating cells, Method A, OX1. Particulars: orexin-A at 4×EC50, * = single experiment, read-out: pIC50 OX1 (converted). Here is the method:
(§1) Intracellular Calcium Measurements Using Stable-replicating Cells:
(§2) Method A (Table 2): Test compounds are prepared as 10 mM stock solutions in DMSO, warmed briefly for 20 seconds at 37° C. and serially diluted in half log concentrations with DMSO followed by dilution with assay buffer (HBSS (Sigma-Aldrich, H8264) containing 10 mM HEPES (Invitrogen, 15630080) and pH adjusted to 7.4) to a top final assay concentration of 10 μM.
(§3) Human OX1 (CT-A674) and human OX2 (CT-A675) receptor-expressing stable-replicating cells are grown in a culture medium, Ham F12 (Invitrogen, 31765-035) containing 10% fetal bovine serum (Invitrogen, 16000044), 1% non-essential amino acids (Invitrogen, 11140-050), 100 U/mL Penicillin/Streptomycin (Invitrogen, 15140-122) and G418 (Invitrogen, 11811023) at a concentration of 400 μg/mL. The cells are seeded at a density of 7,000 cells/well into black, clear bottom 384-well plates (Corning, 3683) and incubated at 37° C. in air supplemented with 5% CO2 for 16 hrs.
(§4) Loading dye (25 μL/well), prepared from a FLIPR Calcium 6 Assay kit (Molecular Devices, R8190-Explorer) according to the manufacturer's instructions, and the serially diluted test compounds (10 μL/well) are added to the plate. The plate is then incubated for 30 mins at 37° C. in 5% CO2, then for 30 mins at ambient temperature and placed into a FlexStation III reader.

For assay [2], the target named is T3, hOX2R (Homo sapiens, UniProt O43614).
T3 sequence (O43614 1-444): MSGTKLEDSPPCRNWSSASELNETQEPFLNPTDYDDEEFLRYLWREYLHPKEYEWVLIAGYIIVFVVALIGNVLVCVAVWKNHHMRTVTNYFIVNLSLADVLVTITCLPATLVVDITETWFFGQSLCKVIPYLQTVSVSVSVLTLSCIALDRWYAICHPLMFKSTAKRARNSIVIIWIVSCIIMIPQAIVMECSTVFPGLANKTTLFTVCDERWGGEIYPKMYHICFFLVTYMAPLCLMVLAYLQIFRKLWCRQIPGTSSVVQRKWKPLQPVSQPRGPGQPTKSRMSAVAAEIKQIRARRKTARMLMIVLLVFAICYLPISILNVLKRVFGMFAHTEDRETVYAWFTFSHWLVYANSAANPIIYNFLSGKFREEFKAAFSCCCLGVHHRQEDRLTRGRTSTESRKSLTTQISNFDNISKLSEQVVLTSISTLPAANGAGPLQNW
Briefly: Intracellular calcium measurements using stable-replicating cells, Method A, OX2. Particulars: orexin-A at 4×EC50, * = single experiment, read-out: pIC50 OX2 (converted). Here is the method:
as §1, §2, §3, §4

The target in assay [3] is T2, hOX1R. Briefly: Intracellular calcium measurements using stable-replicating cells, Method B (CHO cells, FLIPR Tetra), OX1. Particulars: orexin A at EC75, read-out: pIC50 OX1 (converted).
Assay [4] has as its target T3, hOX2R. The experiment in a line: Intracellular calcium measurements using stable-replicating cells, Method B (CHO cells, FLIPR Tetra), OX2. Particulars: orexin A at EC75, read-out: pIC50 OX2 (converted). The procedure:
as §1
Human OX1 or human OX2 receptor expressing CHO cells are plated into 384 well black, clear bottom, CellBIND plates at a seeding density of 10,000 cells/75 μL growth media. The seeded plates are incubated at 37° C. in air supplemented with 5% CO2 overnight.
The next day media is removed and replaced with 30 μL/well of cell loading buffer (a vial of Calcium 5 is solubilized in 20 mL of assay buffer) and the cells incubated for 1 hr at 37° C. The serially diluted test compounds (10 μL/well) are added to the cell plate by the FLIPR Tetra and the addition is monitored for 5 mins by the instrument. The cell plate is then removed and incubated for additional 25 mins in a humidified incubator at […] prior to being placed back into the FLIPR Tetra. Finally 10 μL of orexin A in assay buffer +0.1% (w/v) bovine serum albumin is dispensed by the FLIPR Tetra at an EC75 concentration determined for each assay run. Fluorescence is measured at excitation and emission wavelengths of 485 nm and 525 nm respectively and data analyzed using GraphPad Prism for the EC75 value of orexin A and Aplus to determine an IC50 value for each test compound.

Assay [5] concerns the target T2, hOX1R. The experiment in a line: Intracellular calcium measurements using division-arrested cells, OX1. Particulars: agonist orexin A at 2×EC50, * = single experiment, otherwise average of at least two, read-out: pIC50 OX1 (converted). An outline of the steps: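 Division-arrested cells expressing human OX1 or OX2 were seeded for 16 h, then loaded with Calcium 5 dye plus probenecid for 1 h at 37 °C. Compounds in HEPES-buffered HBSS with 0.1% BSA, pH 7.4, top final concentration 10 μM, were added 10 min before the FlexStation calcium read.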

Regarding `CC[C@@H](CNc1ccc2nccn2c1)N(C)C(=O)c1cc(Cl)ccc1-n1nccn1` [(S)-5-chloro-N-(1-(imidazo[1,2-a]pyridin-6-ylamino)butan-2-yl)-N-methyl-2-(2H-1,2,3-triazol-2-yl)benzamide], the IC50 on orexin-1 was more than 10 µM.
As to `CC[C@@H](COc1nc2ccccc2n1C)NC(=O)c1cc(C)ccc1-n1nccn1` [(S)-5-methyl-N-(1-((1-methyl-1H-benzo[d]imidazol-2-yl)oxy)butan-2-yl)-2-(2H-1,2,3-triazol-2-yl)benzamide], at orexin-1, the IC50 is more than 10 µM.
With `CC[C@@H](CNc1ncc(C(F)(F)F)cn1)N(C)C(=O)c1nc(C(C)(C)O)ccc1-n1nccn1` [(S)-6-(2-hydroxypropan-2-yl)-N-methyl-3-(2H-1,2,3-triazol-2-yl)-N-(1-((5-(trifluoromethyl)pyrimidin-2-yl)amino)butan-2-yl)picolinamide], at orexin-1, the IC50 was more than 10 µM.
For the molecule `CCOC(=O)c1ccc(NC[C@H](CC)N(C)C(=O)c2cc(Cl)ccc2-n2nccn2)nc1` [(S)-ethyl 6-((2-(5-chloro-N-methyl-2-(2H-1,2,3-triazol-2-yl)benzamido)butyl)amino) nicotinate], the IC50 on orexin-1 was more than 10 µM.
Consider `CC[C@@H](COc1nc2ccccc2n1C)N(C)C(=O)c1cc(C)ccc1-n1nccn1` [(S)—N,5-dimethyl-N-(1-((1-methyl-1H-benzo[d]imidazol-2-yl)oxy)butan-2-yl)-2-(2H-1,2,3-triazol-2-yl)benzamide], for which the IC50 on orexin-1 is more than 10 µM.
As for `CC[C@@H](CNc1ccc(Cl)cn1)NC(=O)c1cc(C)ccc1N1CCN(C)CC1` [(S)—N-(1-((5-chloropyridin-2-yl)amino)butan-2-yl)-5-methyl-2-(4-methylpiperazin-1-yl)benzamide], the IC50 on orexin-1 was more than 10 µM.
As for `CC[C@@H](CNc1nc2ccccc2o1)N(C)C(=O)c1cc(Cl)ccc1-n1nccn1` [Example 43, (S)—N-(1-(benzo[d]oxazol-2-ylamino)butan-2-yl)-5-chloro-N-methyl-2-(2H-1,2,3-triazol-2-yl)benzamide], the IC50 at hOX1R [1] was 0.01 µM; on hOX2R [2], 1 µM; at hOX1R [3] it was 0.000794 µM; at hOX2R [4] it was 0.794 µM.
Regarding `CC[C@@H](CNc1ncc(C(F)(F)F)cn1)N(C)C(=O)c1nc(C)ccc1-n1nccn1` [Example 46, (S)—N,6-dimethyl-3-(2H-1,2,3-triazol-2-yl)-N-(1-((5-(trifluoromethyl)pyrimidin-2-yl)amino)butan-2-yl)picolinamide], the IC50 is 0.02 µM on hOX1R [5]; 0.0316 µM on hOX1R [1]; more than 10 µM on hOX2R [2]; 0.00316 µM at hOX1R [3]; more than 10 µM on hOX2R [4].
Regarding `CC[C@@H](CNc1cnc(C(F)(F)F)cn1)N(C)C(=O)c1nc(C)ccc1-n1nccn1` [Example 47, (S)—N,6-dimethyl-3-(2H-1,2,3-triazol-2-yl)-N-(1-((5-(trifluoromethyl)pyrazin-2-yl)amino)butan-2-yl)picolinamide], the IC50 at hOX1R [5] was 0.0316 µM; on hOX1R [1], 0.00398 µM; on hOX2R [2], more than 7.94 µM; on hOX1R [3], 0.00251 µM; on hOX2R [4], more than 3.98 µM.
In the case of `CC[C@@H](CNc1ncc2ccccc2n1)N(C)C(=O)c1nc(C)ccc1-n1nccn1` [Example 61, (S)—N,6-dimethyl-N-(1-(quinazolin-2-ylamino)butan-2-yl)-3-(2H-1,2,3-triazol-2-yl)picolinamide], the IC50 is 0.00398 µM on hOX1R [1], 1.58 µM on hOX2R [2], 0.00251 µM on hOX1R [3] and 3.16 µM on hOX2R [4].
On the same counts, the results for `CC[C@@H](CNc1nc2ccccc2s1)N(C)C(=O)c1nc(C)ccc1-n1nccn1` [Example 63, (S)—N-(1-(benzo[d]thiazol-2-ylamino)butan-2-yl)-N,6-dimethyl-3-(2H-1,2,3-triazol-2-yl)picolinamide] are 0.00158 µM, 1.26 µM, 0.00158 µM and 0.501 µM.
The like results for `CC[C@@H](CNc1ccc2ccccc2n1)N(C)C(=O)c1nc(C)ccc1-n1nccn1` [Example 75, (S)—N,6-dimethyl-N-(1-(quinolin-2-ylamino)butan-2-yl)-3-(2H-1,2,3-triazol-2-yl)picolinamide] were, in that order, 0.00631 µM, 2 µM, 0.00126 µM and 2.51 µM.
As for `CC[C@@H](CNc1ccc2ccccc2n1)N(C)C(=O)c1cc(Cl)ccc1-n1nccn1` [Example 77, (S)-5-chloro-N-methyl-N-(1-(quinolin-2-ylamino)butan-2-yl)-2-(2H-1,2,3-triazol-2-yl)benzamide], the IC50 was 0.00794 µM at hOX1R [1], 1.26 µM at hOX2R [2], 0.000794 µM at hOX1R [3] and 0.501 µM at hOX2R [4].
On the same counts, the results for `CC[C@@H](CNc1ncc(C(F)(F)F)cn1)N(C)C(=O)c1cccc2cccnc12` [Example 79, (S)—N-methyl-N-(1-((5-(trifluoromethyl)pyrimidin-2-yl)amino)butan-2-yl)quinoline-8-carboxamide] are 0.1 µM, 1.58 µM, 0.0794 µM and 2.51 µM.
On to `CC[C@@H](CNc1ncc(C(F)(F)F)cn1)N(C)C(=O)c1cc(Cl)cc2cccnc12` [Example 80, (S)-6-chloro-N-methyl-N-(1-((5-(trifluoromethyl)pyrimidin-2-yl)amino)butan-2-yl)quinoline-8-carboxamide], for which the IC50 on hOX1R [1] is 0.0251 µM; at hOX2R [2], 0.2 µM; on hOX1R [3], 0.01 µM; on hOX2R [4], 0.316 µM.
In the case of `CC[C@@H](CNc1ncc(C(F)(F)F)cn1)N(C)C(=O)c1nc(N(C)C)cc2ccccc12` [Example 81, (S)-3-(dimethylamino)-N-methyl-N-(1-((5-(trifluoromethyl)pyrimidin-2-yl)amino)butan-2-yl)isoquinoline-1-carboxamide], the IC50 was 0.0398 µM on hOX1R [1], 0.251 µM at hOX2R [2], 0.00501 µM at hOX1R [3] and 0.251 µM on hOX2R [4].
